≈ marks a conversion by molar mass, not a printed value.
Columns and labels:
Type in all cases: cell-based
[1] = test system: A549 (human non-small lung cell); test: In vitro antitumor effect against human tumor cell lines, SRB assay, A549; conditions: A549 cells, 48 hours; for IC50: Homo sapiens, read-out: ED50 A 549
Protocol: (§1) In vitro antitumor effect against human tumor cell lines.
(§2) a. Human solid tumor cell lines, A549(non-small lung cell), SKMEL-2(melanoma), HCT-15(colon), SKOV-3(ovarian), XF-498(CNS) were cultured at 37° C. in 5% CO2 incubators using RPMI 1640 media containing 10% FBS, while they were transfer-cultured successively once or twice per week. Cell cultures were dissolved in a solution of 0.25% trypsin and 3 mM CDTA PBS(−) and then cells were separated from media which the cells were sticked on.
(§3) b. 5×10^3˜2×10^4 cells were added into each well of 96-well plate and cultured in 5% CO2 incubator, at 37° C., for 24 hours.
(§4) c. Each sample drug was dissolved in a little DMSO and diluted with the used medium to a prescribed concentration for experiments, wherein the final concentration of DMSO was controlled below 0.5%.
(§5) d. Medium of each well cultured for 24 hours as above b. was removed by aspiration. Each 200 μl of drug samples prepared in c. was added into each well and the wells were cultured for 48 hours. Tz(time zero) plates were collected at the point of time drugs were added.
(§6) e. According to the SRB assay method, cell fixing with TCA, staining with 0.4% SRB solution, washing with 1% acetic acid and elution of dye with 10 mM Tris solution were carried out on Tz plates and culture-ended plates, whereby OD values were measured at 520 nm.
(§7) a. Time zero(Tz) value was determined with measuring the SRB protein amounts of the Tz plates collected at the point of time drugs were added.
(§8) b. Control value(C) was determined with the OD values of wells untreated with a drug.
(§9) c. Drug-treated test value(T) was determined with the OD values of drug-treated wells.
(§10) d. Effects of drugs were estimated with growth stimulation, net growth inhibition, net killing etc., being calculated from Tz, C and T.
(§11) e. If T≧Tz, cellular response function was calculated by 100×(T−Tz)/(C−Tz), and if T<Tz, by 100×(T−Tz)/Tz.

[2] = test system: XF 498 (human CNS); test: In vitro antitumor effect against human tumor cell lines, SRB assay, XF 498; conditions: 48 hours; for IC50: Homo sapiens, XF498, XF-498 cells, read-out: ED50 XF-498; for ED50 XF-498: XF-498 cells
Protocol: as §1, §2, §3, §4, §5, §6, §7, §8, §9, §10, §11

[3] = test system: HCT-15 (human colon); test: In vitro antitumor effect against human tumor cell lines, SRB assay, HCT-15; conditions: HCT 15 cells, 48 hours; for IC50: Homo sapiens, read-out: ED50 HCT 15
Protocol: as §1, §2, §3, §4, §5, §6, §7, §8, §9, §10, §11

[4] = test system: SKOV-3 (human ovarian); test: In vitro antitumor effect against human tumor cell lines, SRB assay, SKOV-3; conditions: SK-OV-3 cells, 48 hours; for IC50: Homo sapiens, read-out: ED50 SK-OV-3
Protocol: as §1, §2, §3, §4, §5, §6, §7, §8, §9, §10, §11

[5] = test system: SKMEL-2 (human melanoma); test: In vitro antitumor effect against human tumor cell lines, SRB assay, SKMEL-2; conditions: SK-MEL-2 cells, 48 hours; for IC50: Homo sapiens, read-out: ED50 SK-MEL-2
Protocol: as §1, §2, §3, §4, §5, §6, §7, §8, §9, §10, §11

[6] = test system: P388 (mouse lymphoid neoplasma cell); test: In vitro antitumor effects against animal leukemia cells, dye exclusion assay; conditions: 48 hours, trypan blue dye exclusion, read-out: P388 (IC50, concentration showing 50% cell growth inhibition compared with the control)
Protocol: In vitro antitumor effects against animal leukemia cells.
Tumor cell line: P388 (mouse lymphoid neoplasma cell)
B. Method: Dye Exclusion Assay.
1) Concentrations of P388 cells being cultured in RPMI 1640 media containing 10% FBS were regulated to 1×10^6 cells/ml.
2) Sample drugs of respective concentrations diluted in the ratio of log doses were added into each cell culture and cultured at 37° C., for 48 hours, in […] incubator, and then viable cell numbers were measured by dye exclusion test using trypan blue.

IC50 [1]	IC50 [2]	IC50 [3]	IC50 [4]	IC50 [5]	IC50 [6]	SMILES	ED50 A 549 [1]	ED50 XF-498 [2]	ED50 HCT 15 [3]	ED50 SK-OV-3 [4]	ED50 SK-MEL-2 [5]
323 ng/mL (≈ 0.842 µM)	970 ng/mL (≈ 2.53 µM)	295 ng/mL (≈ 0.769 µM)	904 ng/mL (≈ 2.36 µM)	211 ng/mL (≈ 0.55 µM)	1200 ng/mL (≈ 3.13 µM)	COc1nc(C)c(C)nc1N(C)C(=O)N1CCN(c2cc(C)cc(C)c2)CC1 [Example 20, 1-[(5,6-Dimethyl-2-methoxypyrazin-3-yl)N-methylaminocarbonyl]-4-(3,5-dimethylphenyl)piperazine]					
10 ng/mL (≈ 0.0254 µM)	3 ng/mL (≈ 0.00762 µM)	9 ng/mL (≈ 0.0229 µM)	20 ng/mL (≈ 0.0508 µM)	20 ng/mL (≈ 0.0508 µM)	300 ng/mL (≈ 0.762 µM)	COc1ccccc1N1CCN(C(=O)Nc2nc3ccccc3nc2OC)CC1 [Example 37, 1-[(2-Methoxyquinoxalin-3-yl)aminocarbonyl]-4-(2-methoxyphenyl)-piperazine]					
0.1 ng/mL (≈ 0.000229 µM)	0.1 ng/mL (≈ 0.000229 µM)	0.1 ng/mL (≈ 0.000229 µM)	0.7 ng/mL (≈ 0.0016 µM)	< 0.1 ng/mL	100 ng/mL (≈ 0.229 µM)	CCOc1nc2ccccc2nc1NC(=O)N1CCN(c2cc(OC)cc(OC)c2)CC1 [Example 72, 1-[(2-Ethoxyquinoxalin-3-yl)aminocarbonyl]-4-(3,5-dimethoxyphenyl)piperazine]					
32 ng/mL (≈ 0.0862 µM)	84 ng/mL (≈ 0.226 µM)	19 ng/mL (≈ 0.0512 µM)	88 ng/mL (≈ 0.237 µM)	29 ng/mL (≈ 0.0781 µM)	300 ng/mL (≈ 0.808 µM)	COc1ccccc1N1CCN(C(=O)Nc2nc(C)c(C)nc2OC)CC1 [Example 2, 1-[(5,6-Dimethyl-2-methoxypyrazin-3-yl)aminocarbonyl]-4-(2-methoxyphenyl)piperazine]					
19 ng/mL (≈ 0.0432 µM)	14 ng/mL (≈ 0.0319 µM)	32 ng/mL (≈ 0.0728 µM)	57 ng/mL (≈ 0.13 µM)	11 ng/mL (≈ 0.025 µM)	340 ng/mL (≈ 0.774 µM)	COc1cc(OC)cc(N2CCN(C(=S)Nc3nc4ccccc4nc3OC)CC2)c1 [Example 64, 1-[(2-Methoxyquinoxalin-3-yl)aminothiocarbonyl]-4-(3,5-dimethoxyphenyl)piperazine]					
						COC(=O)c1cc(N=C(NO)N2CCN(c3cc(OC)cc(OC)c3)CC2)c(OC)nc1C [Example 118, N-Hydroxy-N′-(5-methoxycarbonyl-2-methoxy-6-methylpyridin-3-yl)-[4-(3,5-dimethoxyphenyl)piperazin-1-yl]carboxyimidamide]	57 ng/mL (≈ 0.124 µM)	17 ng/mL (≈ 0.037 µM)	0.2 ng/mL (≈ 0.000435 µM)	32 ng/mL (≈ 0.0696 µM)	19 ng/mL (≈ 0.0413 µM)
						COc1nc2ccccc2nc1NC(=O)N1CCN(c2cc(F)cc(F)c2)CC1 [Example 46, 1-[(2-Methoxyquinoxalin-3-yl)aminocarbonyl]-4-(3,5-difluo-rophenyl)piperazine]	2 ng/mL (≈ 0.00501 µM)	1 ng/mL (≈ 0.0025 µM)	2 ng/mL (≈ 0.00501 µM)	7 ng/mL (≈ 0.0175 µM)	3 ng/mL (≈ 0.00751 µM)
					20 ng/mL (≈ 0.0487 µM)	COc1nc(C)c(C)nc1NC(=O)N1CCN(c2cc(Cl)cc(Cl)c2)CC1 [Example 11, 1-[(5,6-Dimethyl-2-methoxypyrazin-3-yl)aminocarbonyl]-4-(3,5-dichlorophenyl)piperazine]					
						COc1cc(OC)cc(N2CCN(C(=Nc3cc(C(C)=O)c(C)nc3OC)NO)CC2)c1 [Example 133, N-Hydroxy-N′-(5-acetyl-2-methoxy-6-methylpyridin-3-yl)-[4-(3,5-dimethoxyphenyl)piperazin-1-yl]carboxyimidamide]	0.1 ng/mL (≈ 0.000225 µM)	0.1 ng/mL (≈ 0.000225 µM)	0.1 ng/mL (≈ 0.000225 µM)	0.1 ng/mL (≈ 0.000225 µM)	0.1 ng/mL (≈ 0.000225 µM)
47 ng/mL (≈ 0.127 µM)	89 ng/mL (≈ 0.241 µM)	38 ng/mL (≈ 0.103 µM)	251 ng/mL (≈ 0.679 µM)	42 ng/mL (≈ 0.114 µM)		CCc1ccccc1N1CCN(C(=O)Nc2nc(C)c(C)nc2OC)CC1 [Example 4, 1-[(5,6-Dimethyl-2-methoxypyrazin-3-yl)aminocarbonyl]-4-(2-ethylphenyl)piperazine]					

— patent publication US6683184B2, “Piperazine derivatives and process for the preparation thereof” (Samjin Pharmaceutical Co., Ltd., priority 1999, dated 2004)
